Assay [1] has as its system HCT-15 (Homo sapiens). Nature of the assay: In vitro cytotoxicity against HCT 15 (human colon) tumor cell line.
Assay [2] has as its system XF498 (Homo sapiens). Briefly: In vitro cytotoxicity against XF498 (human CNS) tumor cell line.
In assay [3] the test system is SK-MEL-2. Briefly: In vitro cytotoxicity against SK-MEL-2 (human melanoma) tumor cell line. The class given is functional, cell-based.
Assay [4] concerns SK-OV-3. Nature of the assay: In vitro cytotoxicity against SKOV-3 (human ovarian) tumor cell line. The class given is functional, cell-based.
Assay [5] has as its system A549. Nature of the assay: Tested for in vitro cytotoxicity against A 549 (human lung) tumor cell line using sulforhodamine B (SRB) assay. The class given is functional, cell-based.
In assay [6] the test system is HCT-15. Nature of the assay: Tested for in vitro cytotoxicity against HCT 15 (human colon) tumor cell line using sulforhodamine B (SRB) assay; not active (> 100 uM). The class given is functional, cell-based.
The test system of assay [7] is SK-MEL-2. Nature of the assay: Tested for in vitro cytotoxicity against SK-MEL-2 (human melanoma) tumor cell line using sulforhodamine B (SRB) assay; not active (> 100 uM). The class given is functional, cell-based.
Assay [8] concerns HCT-15 (Homo sapiens). Nature of the assay: Tested for in vitro cytotoxicity against HCT 15 (human colon) tumor cell line using sulforhodamine B (SRB) assay; not active (> 100 uM).
The subject of assay [9] is A549. Nature of the assay: Tested for in vitro cytotoxicity against A 549 (human lung) tumor cell line using sulforhodamine B (SRB) assay; not active (> 100 uM). The class given is functional, cell-based.
Assay [10] concerns SK-OV-3. Briefly: Tested for in vitro cytotoxicity against SKOV-3 (human ovarian) tumor cell line using sulforhodamine B (SRB) assay; not active (> 100 uM). The class given is functional, cell-based.
Assay [11] relates to HCT-15. Nature of the assay: In vitro cytotoxicity against HCT 15 (human colon) tumor cell line. The class given is functional, cell-based.
For assay [12], the system named is XF498. Briefly: In vitro cytotoxicity against XF498 (human CNS) tumor cell line. The class given is functional, cell-based.
For assay [13], the system named is SK-MEL-2. Briefly: Tested for inhibitory activity against SK-MEL-2 (human melanoma) tumor cell line. The class given is functional, cell-based.
The test system of assay [14] is Mus musculus. Briefly: In vivo anti tumor activity towards P388 leukemia in BDFl mouse expressed as T/C. The class given is functional.
The test system of assay [15] is SK-MEL-2. Nature of the assay: Tested for in vitro cytotoxicity against SK-MEL-2 (human melanoma) tumor cell line using sulforhodamine B (SRB) assay. The class given is functional, cell-based.
Assay [16] deals with SK-OV-3. Nature of the assay: Tested for in vitro cytotoxicity against SKOV-3 (human ovarian) tumor cell line using sulforhodamine B (SRB) assay. The class given is functional, cell-based.
The test system of assay [17] is HCT-15. Nature of the assay: Tested for in vitro cytotoxicity against HCT 15 (human colon) tumor cell line using sulforhodamine B (SRB) assay. The class given is functional, cell-based.
Assay [18] concerns XF498. Nature of the assay: Tested for in vitro cytotoxicity against XF498 (human CNS) tumor cell line using sulforhodamine B (SRB) assay. The class given is functional, cell-based.

Structures are written as SMILES. “And” between values parts separate entries of the source, which are not always exact repeats. Identical values can stand only once.

For the compound `COc1ccc2c(c[n+](C)c3c4cc5c(cc4ccc23)OCO5)c1O` [FAGARIDINE], the IC50 came to 1.12 µM in assay [1]; 1.12 µM in [2]; 2.75 µM in assay [3] (Homo sapiens, SK-MEL-2); 1.35 µM in [4] (Homo sapiens, SK-OV-3); 1.02 µM in assay [5] (Homo sapiens, A549).
As to `Oc1nc(-c2ccc(C(F)(F)F)cc2)cc2ccccc12`, the IC50 entry was “Not Active” in [6]; “Not Active” in assay [7]; “Not Active” in assay [8]; 87.3 µM in [4] (Homo sapiens, SK-OV-3); “Not Active” in assay [9].
Regarding `Cc1ccc2c(O)nc(-c3ccccc3)cc2c1`, the IC50 in assay [1] stood at 0.76 µM; in assay [2] it was 5.13 µM; in [3] (Homo sapiens, SK-MEL-2), 1.58 µM; in assay [4] (Homo sapiens, SK-OV-3), 1.7 µM; in assay [5] (Homo sapiens, A549) it was 1.32 µM.
Consider `CN(C)c1cccc2c(O)nc(-c3ccc(Br)cc3)cc12`, for which the IC50 result in assay [6], in assay [7], in [10], in [8] and in assay [9] was “Not Active” each time.
On to `Cc1ccc2c(N3CCN(C)CC3)nc(-c3ccc(Cl)cc3)cc2c1`, for which the IC50 in assay [1] amounted to 4.07 µM; in assay [2] it was 6.03 µM; in [3] (Homo sapiens, SK-MEL-2) it was 2.4 µM; in assay [4] (Homo sapiens, SK-OV-3), 5.75 µM; in assay [5] (Homo sapiens, A549), 3.19 µM.
Take `Cc1ccc2c(S)nc(-c3ccccc3)cc2c1`: the IC50 in assay [11] was 19.1 µM and 41.9 µM; in assay [3] (Homo sapiens, SK-MEL-2), 19.5 µM; in assay [3] (sk-mel-2) it was 25.1 µM; in [12], 9.12 µM and 75.9 µM; in assay [4] (Homo sapiens, SK-OV-3), 34.7 µM; in assay [4] (sk-ov-3), 56.2 µM. In addition, the IC50 in [5] (Homo sapiens, A549) was 8.51 µM; in [5] (a549), 11 µM.
As for `C=Cc1cc2c(cc1-c1cc3ccc(OC)c(OC)c3c(=O)n1C)OCO2`, half-maximal inhibition in [13] (IC50) required 0.0002 µM.
Regarding `Oc1nc(-c2ccccc2)cc2ccccc12`, the IC50 in assay [1] stood at 1.38 µM; in [2] it was 5.89 µM; in [3] (Homo sapiens, SK-MEL-2), 2.57 µM; in assay [4] (Homo sapiens, SK-OV-3) it was 2.45 µM; in assay [5] (Homo sapiens, A549) it was 5.75 µM.
Consider `COc1ccc(-c2cc3c(N(C)C)cccc3c(O)n2)cc1`, for which the IC50 entry in [6], in [7], in assay [10], in [8] and in [9] was “Not Active” each time.
For `COc1ccc(-c2cc3cc(C)ccc3c(N3CCN(C)CC3)n2)cc1`, the IC50 was determined as 7.41 µM in assay [1]; 9.33 µM in assay [2]; 3.71 µM in assay [3] (Homo sapiens, SK-MEL-2); 7.94 µM in assay [4] (Homo sapiens, SK-OV-3); 7.41 µM in assay [5] (Homo sapiens, A549).
With `CN1CCN(c2nc(-c3ccccc3)cc3c(N(C)C)cccc23)CC1`, the IC50 is 9.55 µM in [1]; 19.9 µM in [2]; 7.08 µM in assay [3] (Homo sapiens, SK-MEL-2); 11.2 µM in [4] (Homo sapiens, SK-OV-3); 10 µM in assay [5] (Homo sapiens, A549).
Take `Oc1nc(-c2ccc3c(c2)OCO3)cc2ccccc12`: the IC50 in assay [1] is 2.69 µM; in assay [2], 17.8 µM; in [3] (Homo sapiens, SK-MEL-2), 25.1 µM; in assay [4] (Homo sapiens, SK-OV-3), 77.6 µM; in [9], “Not Active”.
Consider `COc1ccc(-c2cc3c(N(C)C)cccc3c(N3CCN(C)CC3)n2)cc1`, for which the IC50 in assay [1] is 10.7 µM; in assay [2], 6.17 µM; in [3] (Homo sapiens, SK-MEL-2), 3.98 µM; in assay [4] (Homo sapiens, SK-OV-3), 13.2 µM; in assay [5] (Homo sapiens, A549), 1.82 µM.
In the case of `Sc1nc(-c2ccccc2)cc2ccccc12`, the IC50 result in [6], in assay [7], in assay [10], in [8] and in assay [9] was “Not Active” throughout.
As for `Cc1ccc2c(O)nc(-c3ccccc3C)cc2c1`, the IC50 in [1] is 1.99 µM; in [2], 30.9 µM; in [3] (Homo sapiens, SK-MEL-2), 2.63 µM; in assay [4] (Homo sapiens, SK-OV-3), 4.27 µM; in assay [5] (Homo sapiens, A549), 5.89 µM.
On the same counts, the results for `CN1CCN(c2nc(-c3ccc(Cl)cc3)cc3c(N(C)C)cccc23)CC1` are 7.3 µM, 7.98 µM, 4.3 µM, 7.56 µM and 7.45 µM.
In the case of `CN(C)c1cccc2c(O)nc(-c3ccccc3)cc12`, the concentration for half-maximal inhibition (IC50) entry in [6], in assay [7], in assay [10], in [8] and in assay [9] was “Not Active” in each case.
Consider `Cc1ccc(-c2cc3ccccc3c(O)n2)cc1`, for which the IC50 in [1] stood at 7.08 µM; in [2], 42.7 µM; in assay [3] (Homo sapiens, SK-MEL-2) it was 5.01 µM; in [4] (Homo sapiens, SK-OV-3) it was 13.8 µM; in assay [5] (Homo sapiens, A549), 30.2 µM.
On the same counts, the results for `Cc1ccc(-c2cc3cc(C)ccc3c(O)n2)cc1` are 11.2 µM, 35.5 µM, 7.76 µM, 4.9 µM and 5.62 µM.
For the compound `Cc1ccc(-c2cc3c(N(C)C)cccc3c(O)n2)cc1`, the IC50 entry in [6], in [7], in [10], in [8] and in assay [9] was “Not Active” in each case.
As to `CN1CCN(c2nc(-c3ccccc3)cc3ccccc23)CC1`, the IC50 in assay [1] is 18.6 µM; in [2], 37.1 µM; in [3] (Homo sapiens, SK-MEL-2), 11.8 µM; in assay [4] (Homo sapiens, SK-OV-3), 22.4 µM; in [5] (Homo sapiens, A549), 25.1 µM. This compound also came in with a T/C in [14] of 160%.
As for `Cc1ccc2c(N3CCN(C)CC3)nc(-c3ccccc3C)cc2c1`, the IC50 in [1] was determined as 6.61 µM; in [2] it was 77.6 µM; in assay [3] (Homo sapiens, SK-MEL-2) it was 3.38 µM; in assay [4] (Homo sapiens, SK-OV-3), 5.13 µM; in assay [5] (Homo sapiens, A549) it was 7.59 µM.
For `Cc1ccc2c(O)nc(-c3ccc(Cl)cc3)cc2c1`, the IC50 in assay [15] worked out at 6.31 µM; in assay [16], 6.03 µM; in assay [17], 11.2 µM; in assay [18] it was 11.2 µM; in assay [5], 5.75 µM.
Regarding `COc1ccc(-c2cc3ccccc3c(S)n2)cc1`, the 50% inhibitory concentration (IC50) result in assay [7] was “Not Active”; in [10], “Not Active”; in assay [8] it was “Not Active”; in assay [2], 83.2 µM; in assay [9] it was “Not Active”.
On to `Cc1ccc(-c2cc3cc(C)ccc3c(N3CCN(C)CC3)n2)cc1`, for which the IC50 in [1] came out at 4.47 µM; in assay [2] it was 8.32 µM; in assay [3] (Homo sapiens, SK-MEL-2), 2.4 µM; in assay [4] (Homo sapiens, SK-OV-3), 7.08 µM; in assay [5] (Homo sapiens, A549) it was 7.24 µM.

For the origin of these results see ChEMBL document CHEMBL1130973, “Synthesis and biological evaluation of 3-arylisoquinolines as antitumor agents” (Bioorg Med Chem Lett, 1998).
